Measurements from PMC9181902 (Journal of the American Chemical Society, 2022).
Entries after “also recorded” stand apart in the source; their conditions may differ.

What was measured:
[1] = cited from earlier work
[2] = molecular target: T1, hOAT (Homo sapiens, UniProt P04181); conditions: cited from earlier work
T1 sequence (P04181 26-439): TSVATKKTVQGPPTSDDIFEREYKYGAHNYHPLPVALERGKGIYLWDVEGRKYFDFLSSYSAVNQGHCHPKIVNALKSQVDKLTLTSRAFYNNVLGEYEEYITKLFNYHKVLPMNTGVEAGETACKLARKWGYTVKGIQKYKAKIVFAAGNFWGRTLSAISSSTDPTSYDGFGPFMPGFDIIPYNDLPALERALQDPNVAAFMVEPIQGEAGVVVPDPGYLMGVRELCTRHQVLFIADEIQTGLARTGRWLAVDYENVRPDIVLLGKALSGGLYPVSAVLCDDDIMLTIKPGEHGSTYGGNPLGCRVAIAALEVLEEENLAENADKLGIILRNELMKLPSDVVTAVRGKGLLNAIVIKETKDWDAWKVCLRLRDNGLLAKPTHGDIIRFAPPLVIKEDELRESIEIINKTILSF

[3] = molecular target: T1, hOAT; assay: Partition ratio; format: biochemical
[4] = test system: GABA-AT; assay: Inhibition of GABA-AT; format: biochemical, human; conditions: even at high concentrations
[5] = test system: Ala-AT; assay: Inhibition of Ala-AT; format: biochemical, human; conditions: even at high concentrations
[6] = test system: Asp-AT; assay: Inhibition of Asp-AT; format: biochemical, human; conditions: even at high concentrations
[7] = molecular target: T1, hOAT; assay: Dialysis of inactivated hOAT, return of enzyme activity; format: biochemical
[8] = molecular target: T1, hOAT; assay: Stopped-flow transient state measurements of hOAT; format: biochemical
[9] = test system: GABA-AT; conditions: cited from earlier work

For `N[C@H]1C[C@@H](C(=O)O)CC1=C(C(F)(F)F)C(F)(F)F` [6c, (1S,3S)-3-amino-4-(hexafluoropropan-2-ylidenyl)cyclopentane-1-carboxylic Acid], the “in vivo antitumor efficacy” value [1] is given as “potent in vivo antitumor efficacy” and the Ki [2] is given as 65 ± 10 µM.
In the case of `N[C@H]1C=C(C(=O)O)C[C@H]1C(F)F` [10b, (3S,4R)-3-Amino-4-(difluoromethyl)cyclopent-1-ene-1-carboxylic Acid], the “fraction undergoing ketimine hydrolysis to product 37 and PMP” value [3] is reported as ~ 70%, the “fraction of the reaction forming tight-binding adduct 34” value ([3]; according to the partition ratio (1/3.38)) is reported as ~ 30% and the “inhibitory activity against GABA-AT” value [4] is reported as “weak reversible inhibitor; also recorded: weak reversible inhibitory activity”. The “inhibitory activity against Ala-AT” value [5] was “weak reversible inhibitory activity”, the “inhibitory activity against Asp-AT” value [6] was “weak reversible inhibitory activity” and the “enzyme activity recovered after dialysis” value ([7]; 91 h of dialysis, varying equivalents) was “no enzyme activity was recovered”. The “first successive rate constant from fit of CCD data sets (k2’)” value ([8]; 500 μM of 10b) was 0.22 s⁻¹, the “second successive rate constant from fit of CCD data sets (k3’)” value ([8]; 500 μM of 10b) was 0.21 s⁻¹ and the “third successive rate constant from fit of CCD data sets (k4)” value ([8]; 500 μM of 10b) was 0.03 s⁻¹. The “rate constant for formation of P1 from M2 (k4)” value ([8]; 410 nm, second phase, average) was ~ 0.02 s^−1.
For `N[C@H]1C[C@@H](C(=O)O)CC1=C(F)F` [compound 1, (1S,3S)-3-amino-4-(difluoromethylene)cyclopentane-1-carboxylic acid], the “enzyme activity recovered after dialysis” value ([7]; 48 h of dialysis) was “no enzyme activity was recovered”.
For `N[C@H]1C=C(C(=O)O)CC1=C(F)F` [compound 7, (S)-3-amino-4-(difluoromethylenyl)cyclopent-1-ene-1-carboxylic acid], the “type of inhibition of GABA-AT” value [9] is given as “partially irreversible inhibitors” and the “enzyme activity recovered after dialysis” value ([7]; 48 h of dialysis) is given as “no enzyme activity was recovered”.
